The IC50 is the concentration that inhibits the measured activity by half.

The test system of assay [1] is NCI-H460. Put plainly: Inhibitory concentration against human lung carcinoma cell line H460 after 48 hr in MTT assay. The assay is classed as functional, cell-based. The following applies: NCI-H460, 48 h.
Assay [2] relates to NCI-H460. In words: Percent of cells with COMET measured after single cell gel electrophoresis with the compound. It is filed as functional, Homo sapiens.

Structures are written as SMILES. Values after ≈ are worked out from the molar mass of the structure shown.

Molecule `c1ccc(P(CCP(c2ccccc2)c2ccccc2)c2ccccc2)cc1` had an IC50 in the assay on NCI-H460 [1] of 0.25 µg/mL (≈ 0.627 µM).

With `COc1cccc2c1C(=O)c1c(O)c3c(c(O)c1C2=O)C[C@@](O)(C(=O)CO)C[C@@H]3O[C@H]1C[C@H](N)[C@H](O)[C@H](C)O1` [DOXORUBICIN], the Activity in the assay on NCI-H460 [2] came to 93.55%. This molecule showed an IC50 in the assay on NCI-H460 [1] of 0.05 µg/mL (≈ 0.092 µM).

The values are drawn from ChEMBL document CHEMBL1144348, “Mechanism of cytotoxicity of copper(I) complexes of 1,2-bis(diphenylphosphino)ethane” (J Med Chem, 2005).
